Laboratory results taken from ChEMBL document CHEMBL1671825, “Synthesis and in Vitro and in Vivo Evaluation of Phosphoinositide-3-kinase Inhibitors” (ACS Med Chem Lett, 2011).

Key:
Assay type in all cases: ADME, organism-based
[1] = AUC in rat at 20 mg/kg, po; design: dose 20 mg/kg, route oral; conditions: plasma
[2] = Clearance in rat at 5 mg/kg, iv and 20 mg/kg, po; conditions: in vivo
[3] = Oral bioavailability in rat at 20 mg/kg; conditions: in vivo
[4] = Volume of distribution at steady state in rat at 5 mg/kg, iv and 20 mg/kg, po; conditions: in vivo, read-out: Vdss
[5] = Half life in rat at 5 mg/kg, iv; design: dose 5 mg/kg, route intravenous; conditions: in vivo
[6] = Oral bioavailability in mouse at 10 mg/kg; conditions: in vivo
[7] = Clearance in mouse at 5 mg/kg, iv and 10 mg/kg, po; conditions: in vivo
[8] = Half life in mouse at 10 mg/kg, po; design: dose 10 mg/kg, route oral; conditions: in vivo
[9] = AUC in mouse at 10 mg/kg, po; design: dose 10 mg/kg, route oral; conditions: plasma
[10] = Volume of distribution at steady state in mouse at 5 mg/kg, iv and 10 mg/kg, po; conditions: in vivo, read-out: Vdss

Row | AUC [1] | clearance [2] | bioavailability [3] | Vd [4] | half-life [5] | bioavailability [6] | clearance [7] | half-life [8] | AUC [9] | Vd [10] | SMILES
1 | 0.03 µM·h | 179 mL/min/kg | 1% | 6.9 L/kg | 30 min |  |  |  |  |  | Oc1cccc(-c2cc(Nc3cnc4ccccc4c3)nc(N3CCOCC3)n2)c1
2 | 16 µM·h | 26 mL/min/kg | 46% | 2.4 L/kg | 55 min |  |  |  |  |  | c1cncc(-c2cc(Nc3cnc4ccccc4c3)nc(N3CCOCC3)n2)c1
3 | 93 µM·h | 5 mL/min/kg | 56% | 0.8 L/kg | 103 min |  |  |  |  |  | Nc1ccc(-c2cc(Nc3cnc4ccccc4c3)nc(N3CCOCC3)n2)cn1

Further lines, the compound ahead of its results:

Row | SMILES | AUC [1] | clearance [2] | bioavailability [3] | Vd [4] | half-life [5] | bioavailability [6] | clearance [7] | half-life [8] | AUC [9] | Vd [10]
4 | Nc1ncc(-c2cc(Nc3cnc4ccccc4c3)nc(N3CCOCC3)n2)cn1 | 6 µM·h | 37 mL/min/kg | 23% | 1.9 L/kg | 43 min |  |  |  |  | 
5 | COc1ccc(Nc2cc(-c3cnc(N)nc3)nc(N3CCOCC3)n2)cn1 |  |  |  |  |  | 87% | 99 mL/min/kg | 282 min | 2 µM·h | 1.1 L/kg
